Consider 47 compounds from the PolyMetriX glass transition set.

The compound `*C(=O)c1ccc2c(c1)C(=O)N(c1cccc(C(=O)c3ccccc3N3C(=O)c4ccc(*)cc4C3=O)c1)C2=O` (repeat unit) came in with a glass transition temperature of 259.00 °C. `*C(=O)c1ccc2c(c1)C(=O)N(c1cccc(Cc3ccccc3N3C(=O)c4ccc(*)cc4C3=O)c1)C2=O` (repeat unit) displayed a glass transition temperature of 258.00 °C.

Compound `*CC(O)COc1ccc(C(C)(C)c2ccc(OCC(O)COc3cccc(NC(=O)CCCCCCC(=O)Nc4cccc(O*)c4)c3)cc2)cc1` (repeat unit) returned a glass transition temperature of 92.00 °C.

As to `*CC(O)COc1ccc(C(C)(C)c2ccc(OCC(O)COc3cccc(NC(=O)CCCCCCCCCCC(=O)Nc4cccc(O*)c4)c3)cc2)cc1` (repeat unit), the glass transition temperature was 90.00 °C.

On to `*CCCCCCCCCCCCOc1ccc(N(c2ccccc2)c2ccc(-c3ccc(N(c4ccccc4)c4ccc(O*)cc4)cc3)cc2)cc1` (repeat unit), for which the glass transition temperature was 42.50 °C. With `*CCOC(=O)Nc1ccc(Cc2ccc(NC(=O)OCCOc3ccc(C(C)(C)c4ccc(O*)cc4)cc3)cc2)cc1` (repeat unit) the figure was 127.00 °C; with `*COc1ccc(C(C)(C)c2ccc(Oc3ccc(*)n3-c3ccc([N+](=O)[O-])cc3)cc2)cc1` (repeat unit), 76.8 °C. In turn, `*COc1ccc(C(c2ccc(O*)cc2)(C(F)(F)F)C(F)(F)F)cc1` (repeat unit) had a glass transition temperature of 123.00 °C.

Turning to `*COc1ccc(C(c2ccc(OCC3(*)COC3)cc2)(C(F)(F)F)C(F)(F)F)cc1` (repeat unit), the glass transition temperature is 134.00 °C. As for `*OP(=O)(Oc1ccc(C(C)(C)c2ccc(*)cc2)cc1)OC1CCCCC1` (repeat unit), the glass transition temperature amounted to 86.00 °C. The compound `*OP(=O)(Oc1ccc(Cl)cc1)Oc1ccc(C(C)(C)c2ccc(*)cc2)cc1` (repeat unit) had a glass transition temperature of 71.00 °C. With `*OS(=O)(=O)c1cccc(C(=O)c2cccc(S(=O)(=O)Oc3ccc(C(C)(C)c4ccc(*)cc4)cc3)c2)c1` (repeat unit), the glass transition temperature is 122.00 °C. In turn, `*O[Si](C)(C)Oc1ccc(C(C)(C)c2ccc(*)cc2)cc1` (repeat unit) displayed a glass transition temperature of 45.00 °C. As to `*O[Si](C)(Oc1ccc(C(C)(C)c2ccc(*)cc2)cc1)c1ccccc1` (repeat unit), the glass transition temperature came to 58.00 °C.

As to `*Oc1cc(Oc2ccc(C(C)(C)c3ccc(*)cc3)cc2)cc([N+](=O)[O-])c1` (repeat unit), the glass transition temperature came out at 150.00 °C. `*Oc1ccc(C(C)(C)c2ccc(Oc3c(F)c(F)c(COC(c4cccc(C(OCc5c(F)c(F)c(*)c(F)c5F)(C(F)(F)F)C(F)(F)F)c4)(C(F)(F)F)C(F)(F)F)c(F)c3F)cc2)cc1` (repeat unit) registered a glass transition temperature of 98.00 °C.

As for `*Oc1ccc(P(=O)(c2ccccc2)c2ccc(Oc3ccc(-c4ccc(*)cc4)cc3)cc2)cc1` (repeat unit), the glass transition temperature came to 234.00 °C. On to `*Oc1ccc(S(=O)(=O)c2ccc(-c3ccc(-c4ccc(S(=O)(=O)c5ccc(Oc6ccc(-c7ccc(*)cc7)cc6)cc5)cc4)cc3)cc2)cc1` (repeat unit), for which the glass transition temperature worked out at 264.00 °C. Turning to `*Oc1ccc(S(=O)(=O)c2ccc(-c3ccc(S(=O)(=O)c4ccc(Oc5ccc(-c6ccc(-c7ccc(*)cc7)cc6)cc5)cc4)cc3)cc2)cc1` (repeat unit), the glass transition temperature is 263.00 °C. `*Oc1ccc(S(=O)(=O)c2ccc(Oc3ccc(-c4ccc(-c5ccc(*)cc5)cc4)cc3)cc2)cc1` (repeat unit): the glass transition temperature is 251.00 °C. The compound `*Oc1ccc(S(=O)(=O)c2ccc3cc(S(=O)(=O)c4ccc(Oc5ccc(-c6ccc(*)cc6)cc5)cc4)ccc3c2)cc1` (repeat unit) gave a glass transition temperature of 255.00 °C. With `*c1cc(C(c2ccc(OCCN(C)c3ccc(/C=C/C4=CC(=C(/C#N)C(=O)OC)/CC(C)(C)C4)cc3)c(N3C(=O)c4ccc(Oc5ccc6c(c5)C(=O)N(*)C6=O)cc4C3=O)c2)(C(F)(F)F)C(F)(F)F)ccc1OCCN(c1ccccc1)c1ccc(/C=C/C2=CC(=C(/C#N)C(=O)OC)/CC(C)(C)C2)cc1` (repeat unit) the figure was 207.00 °C. `*c1cc(C(c2ccc(OCCN(C)c3ccc(/C=C/C4=CC(=C(/C#N)C(=O)OCc5ccc(Oc6c(F)c(F)c(F)c(F)c6F)cc5)/CC(C)(C)C4)cc3)c(N3C(=O)c4ccc(Oc5ccc6c(c5)C(=O)N(*)C6=O)cc4C3=O)c2)(C(F)(F)F)C(F)(F)F)ccc1OCCN(c1ccccc1)c1ccc(/C=C/C2=CC(=C(/C#N)C(=O)OCc3ccc(Oc4c(F)c(F)c(F)c(F)c4F)cc3)/CC(C)(C)C2)cc1` (repeat unit) returned a glass transition temperature of 162.00 °C. Compound `*c1cc(C(c2ccc(OCCN(C)c3ccc(/C=C/C4=CC(=C(C#N)C#N)CC(C)(C)C4)cc3)c(N3C(=O)c4ccc(Oc5ccc6c(c5)C(=O)N(*)C6=O)cc4C3=O)c2)(C(F)(F)F)C(F)(F)F)ccc1OCCN(C)c1ccc(/C=C/C2=CC(=C(C#N)C#N)CC(C)(C)C2)cc1` (repeat unit) displayed a glass transition temperature of 215.00 °C. `*c1cc(C(c2ccc(OCCN(c3ccccc3)c3ccc(/C=C/C4=CC(=C(C#N)C#N)CC(C)(C)C4)cc3)c(N3C(=O)c4ccc(Oc5ccc6c(c5)C(=O)N(*)C6=O)cc4C3=O)c2)(C(F)(F)F)C(F)(F)F)ccc1OCCN(c1ccccc1)c1ccc(/C=C/C2=CC(=C(C#N)C#N)CC(C)(C)C2)cc1` (repeat unit) registered a glass transition temperature of 220.00 °C. In turn, `*c1ccc(-c2ccc(-n3c(-c4ccc(Oc5ccc(S(=O)(=O)c6ccc(Oc7ccc(-c8nc9ccccc9n8*)cc7)cc6)cc5)cc4)nc4ccccc43)cc2)cc1` (repeat unit) registered a glass transition temperature of 289.00 °C. `*c1ccc(-c2ccc(Oc3ccc(C4(C)CC(C)(C)c5ccc(Oc6ccc(-c7ccc(N8C(=O)c9ccc(Oc%10ccc%11c(c%10)C(=O)N(*)C%11=O)cc9C8=O)cc7)cc6C(F)(F)F)cc54)cc3)c(C(F)(F)F)c2)cc1` (repeat unit) gave a glass transition temperature of 249.00 °C.

`*c1ccc(OCCCCCCCCCCCCCCCC)c(N2C(=O)CC(C3C=C(C)C4C(=O)N(*)C(=O)C4C3)C2=O)c1` (repeat unit) had a glass transition temperature of 186.00 °C.

For `*c1ccc(OCCN(CC)c2ccc(-c3ccc(C(=C(C#N)C#N)c4ccc(-c5ccc(N(CC)CC)cc5)s4)s3)cc2)c(-c2cc(-c3ccccc3)c3cc(Oc4ccc5nc(*)cc(-c6ccccc6)c5c4)ccc3n2)c1` (repeat unit), the glass transition temperature was found to be 205.00 °C. On to `*c1ccc(OCCN(CC)c2ccc(C(C#N)=C(C#N)C#N)cc2)c(-c2cc(-c3ccccc3)c3cc(Oc4ccc5nc(*)cc(-c6ccccc6)c5c4)ccc3n2)c1` (repeat unit), for which the glass transition temperature turned out to be 200.00 °C. Compound `*c1ccc(Oc2ccc(-c3cc(-c4ccccc4)c4cc(Oc5ccc6nc(*)c(-c7ccccc7)c(-c7ccccc7)c6c5)ccc4n3)cc2)cc1` (repeat unit) registered a glass transition temperature of 305.00 °C. `*c1ccc(Oc2ccc(-c3cc(-c4ccccc4)c4cc(Oc5ccc6nc(*)cc(-c7ccccc7)c6c5)ccc4n3)cc2)cc1` (repeat unit) gave a glass transition temperature of 266.00 °C. To `*c1ccc(Oc2ccc(-c3cc(OCCCCCC)c(-c4ccc(Oc5ccc(-c6nnc(*)o6)cc5)cc4)cc3OCCCCCC)cc2)cc1` (repeat unit) belongs 103.00 °C.

With `*c1ccc(Oc2ccc(-c3ccc(-c4ccc(Oc5ccc(-c6c7c(c(*)c8ccccc68)C(=O)N(c6ccccc6)C7=O)cc5)c(C(F)(F)F)c4)s3)cc2C(F)(F)F)cc1` (repeat unit), the glass transition temperature came to 287.00 °C.

Regarding `*c1ccc(Oc2ccc(-c3ccc(Oc4ccc(-c5nc(*)nc(-c6ccccc6)n5)cc4)cc3)cc2)cc1` (repeat unit), the glass transition temperature amounted to 241.00 °C. The compound `*c1ccc(Oc2ccc(-c3ccc(Oc4ccc(-c5nc(-c6ccccn6)nnc5*)cc4)cc3)cc2)cc1` (repeat unit) yielded a glass transition temperature of 230.00 °C.

For the compound `*c1ccc(Oc2ccc(-c3ccc(Oc4ccc(-c5nnc(*)c6c(-c7ccccc7)c(-c7ccc8ccccc8c7)c(-c7ccc8ccccc8c7)c(-c7ccccc7)c56)cc4)cc3)cc2)cc1` (repeat unit), the glass transition temperature is 334.00 °C. The compound `*c1ccc(Oc2ccc(-c3cnc4cc(Oc5ccc6nc(*)cnc6c5)ccc4n3)cc2)cc1` (repeat unit) showed a glass transition temperature of 382.00 °C. As for `*c1ccc(Oc2ccc(-c3cnc4ccc(-c5ccc6nc(*)cnc6c5)cc4n3)cc2)cc1` (repeat unit), the glass transition temperature is 280.00 °C. The compound `*c1ccc(Oc2ccc(-c3nc4ccc(-c5ccc6nc(*)c(-c7ccccc7)c(-c7ccccc7)c6c5)cc4c(-c4ccccc4)c3-c3ccccc3)cc2)cc1` (repeat unit) displayed a glass transition temperature of 300.00 °C.

`*c1ccc(Oc2ccc(C(=O)c3ccc4cc(C(=O)c5ccc(Oc6ccc(-c7nc(-c8ccc(-c9nc(*)c(-c%10ccccc%10)[nH]9)cc8)[nH]c7-c7ccccc7)cc6)cc5)ccc4c3)cc2)cc1` (repeat unit) registered a glass transition temperature of 281.00 °C. Compound `*c1ccc(Oc2ccc(C(C)(C)c3ccc(Oc4ccc(-c5nc(*)nc(-c6ccccc6)n5)cc4)cc3)cc2)cc1` (repeat unit) displayed a glass transition temperature of 228.00 °C. The compound `*c1ccc(Oc2ccc(C(C)(C)c3ccc(Oc4ccc(-c5nnc(*)n5-c5ccc(S(=O)(=O)c6ccccc6)cc5)cc4)cc3)cc2)cc1` (repeat unit) had a glass transition temperature of 198.00 °C.

Turning to `*c1ccc(Oc2ccc(C(c3ccc(Oc4ccc(-c5nnc(*)c6c(-c7ccccc7)c(-c7ccc8ccccc8c7)c(-c7ccc8ccccc8c7)c(-c7ccccc7)c56)cc4)cc3)(C(F)(F)F)C(F)(F)F)cc2)cc1` (repeat unit), the glass transition temperature came to 291.00 °C. The compound `*c1ccc(Oc2ccc(S(=O)(=O)c3ccc(Oc4ccc(-c5cc(*)[nH]n5)cc4)cc3)cc2)cc1` (repeat unit) came in with a glass transition temperature of 260.00 °C.

For the compound `*c1ccc(Oc2ccc(S(=O)(=O)c3ccc(Oc4ccc(-c5nc(-c6cccc(-c7nc(*)c(-c8ccccc8)[nH]7)c6)[nH]c5-c5ccccc5)cc4)cc3)cc2)cc1` (repeat unit), the glass transition temperature amounted to 292.00 °C. Compound `*c1ccc2oc(-c3ccc(Oc4ccc(C(c5ccc(Oc6ccc(-c7nc8cc(C(*)(C(F)(F)F)C(F)(F)F)ccc8o7)cc6)cc5)(C(F)(F)F)C(F)(F)F)cc4)cc3)nc2c1` (repeat unit) gave a glass transition temperature of 255.00 °C.
